# Test results from patent US4618604A, “Composition and method for improving feed utilization or tissue production in animals” (Monsanto Company, priority 1984, dated 1986).
# Structures can show the parent of a compound that is named as a salt.
# Assays:
# [1] = Chick growth feeding trial (weight gain and feed conversion, treated vs untreated chicks); type: in vivo
# [2] = Pig growth feeding trials I-III (weight gain and feed efficiency, treated vs untreated pigs); type: in vivo; settings: Example 2, growing period about 18-90 kg
# From the text: The following examples are included to illustrate the improved feed utilization and/or tissue producing effect of the substituted phenylphosphinic acid derivatives of the present invention. It should be understood that examples are included to illustrate the practice of the present invention and are not intended to limit the scope of the invention. It should be further understood that the dosage levels recited in the following examples are only illustrative and are not meant to limit the scope of the invention. Unless otherwise noted, all percentages are by weight. Comparisons are between the numerical average for treated animals and the numerical average for untreated animals.
# A swine diet for growing pigs prepared from the following types and amounts of ingredients:
# Three trials were conducted wherein pigs were administered 2-methoxyphenylmethylphosphinic acid at dosage levels of 2.0, 10.0, 20.0 (TRIAL I); 0.5, 2.0, 8.0 (TRIAL II); and 0.5, 2.0, 8.0 (TRIAL III) milligrams per kilogram of finished feed throughout a growing period of about 18-90 kg.
# [3] = Examples 4 and 6, 1 mg and 10 mg per kg feed
# [4] = trials I and II, 2.0 mg/kg finished feed
# [5] = Example 10, 1, 20, 60 or 100 mg per kg feed
compound,measurement,setting,value
CCP(=O)(O)c1ccccc1OC [2-methoxyphenylethylphosphinic acid],average daily weight gain,"[1]; Example 8, 10 mg per kg feed",higher average daily weight gain than untreated chicks
CP(=O)(O)c1ccccc1[N+](=O)[O-] [2-nitrophenylmethylphosphinic acid],average daily weight gain,[1]; [3],higher average daily weight gain than untreated chicks
CP(=O)(O)c1ccccc1Cl [2-chlorophenylmethylphosphinic acid],daily weight gain,"[1]; Example 5, 0.5 mg per kg feed",higher daily weight gain than untreated chicks
CP(=O)(O)c1ccccc1N [2-aminophenylmethylphosphinic acid hydrochloride salt],average daily weight gain,"[1]; Example 9, 2.0 mg per kg feed",higher average daily weight gain than untreated chicks
COc1ccccc1P(C)(=O)O [2-methoxyphenylmethylphosphinic acid],weight gain,"[2]; 10.0 and 20.0 mg/kg finished feed, vs untreated",gained weight faster than untreated pigs
same,daily weight gain,[2]; [4],faster daily weight gain
same,feed efficiency,[2]; [4],improved feed efficiency
same,average daily gain,[1]; [5],higher average daily gain
same,conversion of feed to weight gain,[1]; [5],converted feed to weight gain more efficiently than untreated chicks
"CP(=O)(O)c1ccccc1C(=O)O [2-carboxylphenylmethylphosphinic acid, 2-carboxyphenylmethylphosphinic acid]",average daily weight gain,"[1]; Example 7, 11 mg per kg feed",higher average daily weight gain than untreated chicks
Cc1ccccc1P(C)(=O)O [2-methylphenylmethylphosphinic acid],conversion of feed to weight gain,"[1]; Example 3, 0.5 to 4.0 mg/kg feed, 45-48 days",converted feed to weight gain more efficiently than untreated chicks
CP(=O)(O)c1ccccc1O [Ammonium 2-hydroxyphenylmethylphosphinate],average daily weight gain,[1]; [3],higher average daily weight gain than untreated chicks
